Where two headings read alike, the source gives them in different places.

The target in one test is T1, estrogen receptors (Homo sapiens, UniProt P03372).
T1 construct: estrogen receptor extracted from MCF-7 human breast tumor cells; endogenous in cells; host or cells: MCF-7 human breast cancer cells (nuclear extract, cytosol or whole cell extract)
T1 sequence (P03372 1-595): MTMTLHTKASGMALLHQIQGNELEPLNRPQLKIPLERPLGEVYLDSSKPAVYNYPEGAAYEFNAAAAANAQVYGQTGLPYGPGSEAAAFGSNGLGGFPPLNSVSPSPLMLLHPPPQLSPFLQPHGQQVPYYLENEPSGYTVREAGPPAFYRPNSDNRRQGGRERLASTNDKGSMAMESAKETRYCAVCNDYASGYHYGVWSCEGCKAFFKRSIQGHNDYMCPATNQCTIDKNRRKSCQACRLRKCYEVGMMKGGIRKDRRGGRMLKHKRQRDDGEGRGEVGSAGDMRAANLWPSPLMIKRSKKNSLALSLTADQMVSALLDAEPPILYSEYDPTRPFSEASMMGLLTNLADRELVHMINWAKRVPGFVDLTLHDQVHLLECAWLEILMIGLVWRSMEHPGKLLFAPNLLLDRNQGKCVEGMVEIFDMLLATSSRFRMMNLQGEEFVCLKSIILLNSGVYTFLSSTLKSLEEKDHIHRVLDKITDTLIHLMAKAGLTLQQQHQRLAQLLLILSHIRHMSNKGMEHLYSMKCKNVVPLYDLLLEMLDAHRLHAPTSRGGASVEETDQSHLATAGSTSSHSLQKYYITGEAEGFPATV
Put plainly: Quantification of estrogen receptors in nuclear and whole cell extracts (ER-EIA monoclonal kit), Table 1. In kind it is cell-based, human (MCF-7 human breast cancer cells). How it is done: (§1) Monolayers of MCF-7 human breast cancer cells are rinsed once with HBSS and scraped off culture dishes into 15 ml conical tubes with 5 ml HBSS. The cells are sedimented by centrifugation at 250×g for five minutes, suspended in 1 ml HBSS and sedimented by centrifugation at 2000 rpm in a tabletop centrifuge for five minutes in a 1.5 ml microfuge tube. Two PCV of a solution of a lysis buffer (25 mM HEPES, pH 7.8, 50 mM KCl, 0.5% Nonidet P 40, 2 mM dithiothreitol, 0.2 mM phenylmethylsulfonyl fluoride, 0.05 mg/ml leupeptin, 0.05 mg/ml aprotinin, 0.0025 mg/ml pepstatin, 0.005 mg/ml antipain) are added and cells are kept on ice for 15 minutes. Lysed cells are centrifuged for 3 minutes at 10,000×g, supernatant decanted, and kept as the cytosol fraction. Pellets are suspended in two PCV of extraction buffer (25 mM HEPES, pH 7.8, 500 mM KCl, 10% glycerol, 2 mM dithiothreitol and the above protease inhibitors), mixed for 20 minutes by inversion at 4 degrees C. and centrifuged at 10,000×g for 20 minutes. The supernatant is decanted and saved as nuclear extract. Both the nuclear extract and the cytosol are dialyzed for two hours against dialysis buffer (25 mM HEPES, pH 7.8, 50 mM KCl, 10% glycerol, 2 mM dithiothreitol and the above protease inhibitors). Nuclear and cytosol fractions are stored frozen at -80 degrees C. until used for mobility shift assays or determination of estrogen receptor content.
Whole cell extracts of tumor cells are prepared by the method of Reese and Katzenellenbogen, Nuc. Acids Res., 19: 6595-6602 (1991), with some modifications. Cell monolayers are rinsed once with HBSS, then scraped into HBSS and sedimented by centrifugation (5 min., 250×g). After resuspending in 1 mL HBSS, the cells are again sedimented at 250×g for 5 min at 4° C. The cell pellet is resuspended in lysis/extract buffer containing 20 mM Tris, pH 7.5, 10% glycerol (v/v), 0.5M sodium chloride and 0.5% NP-40 (v/v) and incubated on ice for 25 minutes, then the supernatants are dialyzed against 25 mM HEPES, pH 7.8, 10% glycerol (v/v), 0.5 mM dithiothreitol and 50 mM potassium chloride for 2 hours at 4° C. Both the lysis/extraction and the dialysis buffers contain protease inhibitors which included 0.5 mM phenylmethylsulfonylfluoride, 0.05 mg/mL leupeptin, 0.05 mg/mL aprotinin, 0.00-25 mg/mL pepstatin, and 0.005 mg/mL antipain. Dialyzed whole cell extracts are stored in aliquots at -80° C. until used.
The protein concentration for nucleus and cytosol fractions are determined with a BIO-RAD kit, according to the manufacturer's instructions.
Estrogen receptor levels in nuclear and whole cell extracts of tumor cells were quanitated using the ER-EIA monoclonal kit manufactured by Abbott Laboratories (Diagnostic Division) according to the kit instructions.
receptors in nuclear extracts.
.dagger.WCE refers to IC50 value for estrogen receptors in whole cel
A slash dividing two numbers indicates the results of two separate

The target in test [1] is T2, estrogen receptor binding to an estrogen response element (Homo sapiens, UniProt P03372).
T2 construct: estrogen receptor extracted from MCF-7 human breast tumor cells; endogenous in cells; host or cells: MCF-7 human breast cancer cells (nuclear extract, cytosol or whole cell extract)
T2 sequence (P03372 1-595): T1 sequence (P03372 1-595)
Put plainly: Inhibition of estrogen receptor binding to an estrogen response element in DNA mobility shift assays. The following applies: read-out: integrated volume of shifted ERE oligo as percentage of control, given as % inhibition. Format: biochemical, human (nuclear extract of MCF-7 human breast cancer cells). How it is done:
as §1
Briefly, to each reaction tube was added 0.01 mg nuclear extract, 2 μg poly dIdC, 50 mM NaCl, 1 mM dithiothreitol and 10 mM Tris, pH 7.5 in a total volume of 0.01 ml and the mixture was kept at room temperature for 10 minutes. A ^32 P-labelled estrogen response element [ERE]

The subject of a further test is GAPDH mRNA. Put plainly: GAPDH mRNA levels in treated MCF-7 human breast tumor cells (positive control probe).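 Also: Phosphoimager intensity of radioactive mRNA bands.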 In kind it is cell-based. Conditions: 30 μM, 24 hr. How it is done:
(§2) After treatment with 30 μM drug for 24 hr, total RNA is isolated according to the guanidinium isothiocyanate method using an RNA preparation kit from 5 Prime-3 Prime, Inc., following the manufacturer's instructions. The RNA is separated by formaldehyde gel electrophoresis and transferred to a nylon membrane.

Another test relates to estrogen receptor mRNA. Put plainly: Reduction of estrogen receptor mRNA levels in treated MCF-7 human breast tumor cells.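 As to Estrogen Receptor mRNA band intensity: Phosphoimager intensity of radioactive mRNA bands.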 In kind it is cell-based. Conditions: 30 μM, 24 hr. On the procedure:
as §2

A further test has as its target T3, MCF-7 estrogen receptor (Homo sapiens, UniProt P03372).
T3 construct: estrogen receptor extracted from MCF-7 human breast tumor cells; endogenous in cells; host or cells: MCF-7 human breast cancer cells (nuclear extract, cytosol or whole cell extract)
T3 sequence (P03372 1-595): T1 sequence (P03372 1-595)
Put plainly: Competitive binding assay, Relative Binding Affinities on binding of estradiol to MCF-7 estrogen receptor. On the procedure: Briefly, RBAs are determined from competitive binding assays with several concentrations of estradiol (E2) with and without test compound. After 16-18 hours of incubation at 4 degrees C., unbound [^3 H] E2 is separated from ER-bound [^3 H] E2. The IC50 is determined and the RBA is calculated as: […]

[2] abbreviates: estrogen receptors in nuclear extracts.
Setting [3] is: WCE: estrogen receptors in whole cell extracts.

`Cc1c(CC(=O)NCCCCCCC(=O)N(C)c2ccccc2)c2cc(O)ccc2n1C(=O)c1ccccc1` [MDL 103,005, 7-[[5-Hydroxy-1-benzoyl-2-methyl-1H-indol-3-yl]-acetylamino]-heptanoic acid methyl-phenyl-amide]: on estrogen receptors (setting [2]), half-maximal inhibition (IC50) was put at 27 µM. In other words, the double-digit micromolar range.

Molecule `CCCCc1ccc(C(=O)n2c(C)c(CC(=O)NCCCCCCC(=O)N(CC)CC)c3cc(O)ccc32)cc1` [MDL 103,494, 7-[[5-Hydroxy-1-(4-butylbenzoyl)-2-methyl-1H-indol-3-yl]-acetylamino]-heptanoic acid diethyl-amide] returned an IC50 against estrogen receptors (setting [3]) of 28 µM.

Regarding `CCCCN(C)C(=O)CCCCCCNC(=O)Cc1c(-c2ccc(O)cc2)n(Cc2ccccc2)c2ccc(O)cc12` [MDL 103,623, 7-[[5-Hydroxy-1-benzyl-2-[(4-hydroxy)phenyl]-1H-indol-3-yl]-acetylamino]-heptanoic acid methyl butyl-amide], the IC50 was 16 µM against estrogen receptors (setting [2]) and 17 µM at estrogen receptors (estrogen receptors in nuclear extracts, second of two separate experiments (after the slash)).

On to `CCCCN(C)C(=O)CCCCCCCNC(=O)Cc1cn(Cc2ccccc2)c2ccccc12` [MDL 103,948, 8-[[1-Benzyl-1H-indol-3-yl]-acetylamino]-octanoic acid methyl-butyl-amide], for which, on estrogen receptors (setting [3]), 14 µM corresponded to half-maximal inhibition (IC50). That is a double-digit micromolar value.

In the case of `CCCCN(C)C(=O)CCCCCCCNC(=O)Cc1c(-c2ccc(F)cc2)n(Cc2ccccc2)c2ccc(O)cc12` [MDL 103,970, 8-[[5-Hydroxy-1-benzyl-2-(4-fluorophenyl)-1H-indol-3-yl]-acetylamino]-octanoic acid methyl-butyl-amide], the IC50 against estrogen receptors (setting [2]) came to 16 µM.

At estrogen receptors (setting [2]), `CCCCN(C)C(=O)CCCCCCNC(=O)Cc1c(C)n(CCCc2ccccc2)c2ccc(O)cc12` [MDL 104,261, 7-[[5-Hydroxy-1-(3-phenylpropyl)-2-methyl-1H-indol-3-yl]-acetylamino]-heptanoic acid methyl-butyl-amide] yielded an IC50 of 23.5 µM. The IC50 values of the last two molecules are within 1.5-fold of each other.

Take `CCCCNC(=O)CCCCCCCNC(=O)Cc1c(-c2ccc(O)cc2)n(Cc2ccccc2)c2ccc(O)cc12` [MDL 104,262, 8-[[5-Hydroxy-1-benzyl-2-[(4-hydroxy)phenyl]-1H-indol-3-yl]-acetylamino]-octanoic acid butyl-amide]: at estrogen receptors (setting [2]), the IC50 is 25 µM.

Take `CCCCN(C)C(=O)CCCCCCCNC(=O)Cc1c(-c2ccc(OC(C)=O)cc2)n(Cc2ccccc2)c2ccc(OC(C)=O)cc12` [MDL 104,401, 8-[[5-Acetoxy-1-benzyl-2-[(4-acetoxy)-phenyl]-1H-indol-3-yl]-acetylamino]-octanoic acid methyl-butyl-amide]: the IC50 at estrogen receptors (setting [2]) came out at 28 µM. In test [1], the inhibition at 2 µM was 120%, the inhibition at 5 µM was 92%, the inhibition at 10 µM came out at 59% and the inhibition at 20 µM is 49%. The inhibition at 30 µM in test [1] was 44%.

In turn, `CCN(CC)C(=O)CCCCCCCNC(=O)Cc1c(C)n(C(=O)c2ccc(Cl)cc2)c2ccc(O)cc12` [MDL 104,631, 8-[[5-Hydroxy-1-(4-chlorobenzoyl)-2-methyl-1H-indol-3-yl]-acetylamino]-octanoic acid diethyl-amide] gave an IC50 against estrogen receptors (setting [2]) of 16 µM.

For the molecule `CCCCN(C)C(=O)CCCCCCCNC(=O)Cc1cn(Cc2ccccc2)c2ccc(F)cc12` [MDL 104,822, 8-[[5-Fluoro-1-benzyl-1H-indol-3-yl]-acetylamino]-octanoic acid methyl-butyl-amide], half-maximal inhibition at estrogen receptors (setting [2]) (IC50) required 12 µM.

The molecule `CCCCN(C)C(=O)CCCCCNC(=O)Cc1c(-c2ccc(O)cc2)n(Cc2ccccc2)c2ccc(O)cc12` [MDL 104,982, 6-[[5-Hydroxy-1-benzyl-2-[(4-hydroxy)phenyl]-1H-indol-3-yl]-acetylamino]-hexanoic acid methyl-butyl-amide] came in with a 50% inhibitory concentration (IC50) against estrogen receptors (setting [2]) of 20 µM. This IC50 lies about 1.7-fold higher than the previous one.

On estrogen receptors (setting [2]), `CCCCN(C)C(=O)CCCCCCCNC(=O)Cc1c(C)n(C(=O)c2ccc(OC)cc2)c2ccc(O)cc12` [MDL 105,517, 8-[[5-Hydroxy-1-(4-methoxybenzoyl)-2-methyl-1H-indol-3-yl]-acetylamino]-octanoic acid methyl-butyl-amide] displayed an IC50 of 16 µM.

`CCCCN(C)C(=O)CCCCCNC(=O)Cc1c(C)n(C(=O)c2ccc(Cl)cc2)c2ccc(O)cc12` [MDL 105,643, 6-[[5-Hydroxy-1-(4-chlorobenzoyl)-2-methyl-1H-indol-3-yl]-acetylamino]-hexanoic acid methyl-butyl-amide] gave an IC50 against estrogen receptors (setting [2]) of 19 µM.

Consider `CCCCN(C)C(=O)CCCCCCCNC(=O)Cc1c(C)n(C(=O)c2ccccc2)c2ccc(O)cc12` [MDL 105,813, 8-[[5-Hydroxy-1-benzoyl-2-methyl-1H-indol-3-yl]-acetylamino]-octanoic acid methyl-butyl-amide], for which the “GAPDH mRNA band intensity” value is 6,996 in the test on GAPDH mRNA (replicate 1) and 4,830 in the test on GAPDH mRNA (replicate 2). In the test on estrogen receptor mRNA (mean of replicates 1 and 2), the ER/GAPDH mean was 0.63. Also, the ER/GAPDH in the test on estrogen receptor mRNA (replicate 1) was found to be 0.75; in the test with estrogen receptor mRNA (replicate 2), 0.5. Further, the “Estrogen Receptor mRNA band intensity” value is reported as 5,288 with estrogen receptor mRNA (replicate 1) and 2,418 in the test on estrogen receptor mRNA (replicate 2). Also, in the test on estrogen receptor mRNA (Homo sapiens, MCF7, read-out: ER/GAPDH % Control), the activity at 30 µM was 17%. The “inhibition of estradiol binding to MCF-7 ER” value at MCF-7 estrogen receptor (doses of 100 or 200 nM) is “did not significantly inhibit”; on MCF-7 estrogen receptor (typically, at doses of 100 or 200 nM), “less than 10%”. Further, the inhibition at 2 µM in test [1] (2 μM) was determined as 7.6%. In addition, the inhibition at 5 µM in test [1] (5 μM) is 60%. Besides, the inhibition at 10 µM in test [1] (10 μM) was 84%. For the same molecule, the inhibition at 20 µM in test [1] (20 μM) came out at 33%. The inhibition at 30 µM in test [1] (30 μM) came out at 30%.
